Laboratory results published in patent US9133181B2, “Substituted 6-(4-hydroxy-phenyl)-1H-pyrazolo[3,4-b]pyridine derivatives as kinase inhibitors” (SANOFI, priority 2012, dated 2015).

Biological target: T1, human full-length recombinant PKC βII (Homo sapiens, UniProt P05771)
T1 construct: Active human full-length recombinant PKC βII; purchased Invitrogen GmbH, Darmstadt, Germany
Assay: Determination of PKC βII inhibition (Caliper mobility shift kinase assay)
Type: biochemical
Settings: final compound concentration 1.14 μM (±0.15 μM); 60 min incubation at 32° C.
In short: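 Compound was tested at a final 1.14 µM (±0.15 µM), with % inhibition derived from the product/(substrate+product) peak ratio on a Caliper mobility-shift read-out. Full-length PKC βII was activated by CaCl2, PS and DAG in pH 7.4 Hepes/MgCl2. Peptide and ATP were at 3 µM and 120 µM in the added mix. Incubation was 60 min at 32 °C.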

T1 sequence (P05771 1-673 isoform P05771-2): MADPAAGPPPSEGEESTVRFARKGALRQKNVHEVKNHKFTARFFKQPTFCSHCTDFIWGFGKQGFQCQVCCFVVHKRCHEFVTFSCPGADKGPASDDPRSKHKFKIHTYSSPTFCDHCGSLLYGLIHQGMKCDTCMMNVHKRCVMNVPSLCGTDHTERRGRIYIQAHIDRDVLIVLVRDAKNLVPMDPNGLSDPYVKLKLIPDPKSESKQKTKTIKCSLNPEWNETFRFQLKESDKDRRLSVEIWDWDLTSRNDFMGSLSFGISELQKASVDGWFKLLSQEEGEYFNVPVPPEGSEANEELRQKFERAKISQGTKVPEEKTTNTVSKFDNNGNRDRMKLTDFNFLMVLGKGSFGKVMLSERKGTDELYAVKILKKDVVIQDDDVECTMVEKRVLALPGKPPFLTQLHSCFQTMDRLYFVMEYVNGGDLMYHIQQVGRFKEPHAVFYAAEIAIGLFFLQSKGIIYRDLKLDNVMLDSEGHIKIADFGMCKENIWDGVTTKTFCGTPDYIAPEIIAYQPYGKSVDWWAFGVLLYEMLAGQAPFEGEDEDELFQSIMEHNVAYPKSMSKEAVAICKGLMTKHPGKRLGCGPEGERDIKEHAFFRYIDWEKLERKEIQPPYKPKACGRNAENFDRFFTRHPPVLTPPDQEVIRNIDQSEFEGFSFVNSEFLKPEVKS

Row | inhibition at 1.14 µM | % Inhibition | Structure (SMILES)
1 | 101% |  | Cc1n[nH]c2nc(-c3ccc(O)cc3F)cc(CN3CCNC[C@@H]3C(F)(F)F)c12 [Example 107, 3-Fluoro-4-[3-methyl-4-((R)-2-trifluoromethyl-piperazin-1-ylmethyl)-1H-pyrazolo[3,4-b]pyridin-6-yl]-phenol]
2 | 102% |  | Cc1n[nH]c2nc(-c3ccc(O)cc3F)cc(CN3CCNC[C@H]3C(F)(F)F)c12 [Example 108, 3-Fluoro-4-[3-methyl-4-((S)-2-trifluoromethyl-piperazin-1-ylmethyl)-1H-pyrazolo[3,4-b]pyridin-6-yl]-phenol]
3 | 91% |  | Cc1n[nH]c2nc(-c3ccc(O)cc3F)cc(CN3CCNC[C@@H]3c3ccccc3)c12 [Example 109, 3-Fluoro-4-[3-methyl-4-((S)-2-phenyl-piperazin-1-ylmethyl)-1H-pyrazolo[3,4-b]pyridin-6-yl]-phenol]
4 | 42% |  | Cc1n[nH]c2nc(-c3ccc(O)cc3F)cc(CN3CCNC[C@H]3c3ccccc3)c12 [Example 110, 3-Fluoro-4-[3-methyl-4-((R)-2-phenyl-piperazin-1-ylmethyl)-1H-pyrazolo[3,4-b]pyridin-6-yl]-phenol]
5 |  | 88% | Cc1n[nH]c2nc(-c3ccc(O)cc3)cc(CN3C[C@@H](C)NC[C@@H]3c3ccccc3)c12 [Example 111, 4-[3-Methyl-4-((2S,5R)-5-methyl-2-phenyl-piperazin-1-ylmethyl)-1H-pyrazolo[3,4-b]pyridin-6-yl]-phenol]
6 | 85% |  | Cc1n[nH]c2nc(-c3ccc(O)cc3)cc(CN3C[C@H](C)NC[C@H]3c3ccccc3)c12 [Example 112, 4-[3-Methyl-4-((2R,5S)-5-methyl-2-phenyl-piperazin-1-ylmethyl)-1H-pyrazolo[3,4-b]pyridin-6-yl]-phenol]
7 | 81% |  | Cc1n[nH]c2nc(-c3ccc(O)cc3)cc(CN3CCNC[C@@H]3c3ccc(C(F)(F)F)cc3)c12 [Example 113, 4-{3-Methyl-4-[(S)-2-(4-trifluoromethyl-phenyl)-piperazin-1-ylmethyl]-1H-pyrazolo[3,4-b]pyridin-6-yl}-phenol]
8 | 57% |  | Cc1n[nH]c2nc(-c3ccc(O)cc3)cc(CN3CCNC[C@H]3c3ccc(C(F)(F)F)cc3)c12 [Example 114, 4-{3-Methyl-4-[(R)-2-(4-trifluoromethyl-phenyl)-piperazin-1-ylmethyl]-1H-pyrazolo[3,4-b]pyridin-6-yl}-phenol]
9 | 99% |  | Cc1n[nH]c2nc(-c3ccc(O)cc3F)cc(CN3CCNC[C@]3(C)c3ccccc3)c12 [Example 117, 3-Fluoro-4-[3-methyl-4-((S)-2-methyl-2-phenyl-piperazin-1-ylmethyl)-1H-pyrazolo[3,4-b]pyridin-6-yl]-phenol]
10 | 84% |  | Cc1n[nH]c2nc(-c3ccc(O)cc3F)cc(CN3CCNC[C@@]3(C)c3ccccc3)c12 [Example 118, 3-Fluoro-4-[3-methyl-4-((R)-2-methyl-2-phenyl-piperazin-1-ylmethyl)-1H-pyrazolo[3,4-b]pyridin-6-yl]-phenol]
11 | 86% |  | Cc1n[nH]c2nc(-c3ccc(O)cc3F)cc(CN3CCNC[C@@H]3c3cccc(F)c3)c12 [Example 119, 3-Fluoro-4-{4-[(S)-2-(3-fluoro-phenyl)-piperazin-1-ylmethyl]-3-methyl-1H-pyrazolo[3,4-b]pyridin-6-yl}-phenol]
12 | 102% |  | Cc1n[nH]c2nc(-c3ccc(O)cc3F)cc(CN3CCNC[C@H]3c3cccc(F)c3)c12 [Example 120, 3-Fluoro-4-{4-[(R)-2-(3-fluoro-phenyl)-piperazin-1-ylmethyl]-3-methyl-1H-pyrazolo[3,4-b]pyridin-6-yl}-phenol]
13 | 83% |  | Cc1n[nH]c2nc(-c3ccc(O)cc3F)cc(CN3CC(C)(C)NC[C@@H]3C)c12 [Example 124, 3-Fluoro-4-[3-methyl-4-((S)-2,5,5-trimethyl-piperazin-1-ylmethyl)-1H-pyrazolo[3,4-b]pyridin-6-yl]-phenol]

Second part, the molecule before the results:

Row | Structure (SMILES) | inhibition at 1.14 µM | % Inhibition
14 | Cc1n[nH]c2nc(-c3ccc(O)cc3F)cc(CN3C[C@H](C)NCC3(C)C)c12 [Example 115, 3-Fluoro-4-[3-methyl-4-((S)-2,2,5-trimethyl-piperazin-1-ylmethyl)-1H-pyrazolo[3,4-b]pyridin-6-yl]-phenol] | 94% | 
15 | Cc1n[nH]c2nc(-c3ccc(O)cc3F)cc(CN3C[C@@H](C)NCC3(C)C)c12 [Example 116, 3-Fluoro-4-[3-methyl-4-((R)-2,2,5-trimethyl-piperazin-1-ylmethyl)-1H-pyrazolo[3,4-b]pyridin-6-yl]-phenol] | 95% | 
16 | CC[C@]1(C)CNC(C)(C)CN1Cc1cc(-c2ccc(O)cc2F)nc2[nH]nc(C)c12 [Example 121, 4-[4-((R)-2-Ethyl-2,5,5-trimethyl-piperazin-1-ylmethyl)-3-methyl-1H-pyrazolo[3,4-b]pyridin-6-yl]-3-fluoro-phenol] | 100% | 
17 | CC[C@@]1(C)CNC(C)(C)CN1Cc1cc(-c2ccc(O)cc2F)nc2[nH]nc(C)c12 [Example 122, 4-[4-((S)-2-Ethyl-2,5,5-trimethyl-piperazin-1-ylmethyl)-3-methyl-1H-pyrazolo[3,4-b]pyridin-6-yl]-3-fluoro-phenol] | 100% | 
18 | Cc1n[nH]c2nc(-c3ccc(O)cc3F)cc(CN3CC(C)(C)NC[C@H]3C)c12 [Example 123, 3-Fluoro-4-[3-methyl-4-((R)-2,5,5-trimethyl-piperazin-1-ylmethyl)-1H-pyrazolo[3,4-b]pyridin-6-yl]-phenol] | 88% | 
19 | Cc1n[nH]c2nc(-c3ccc(O)cc3F)cc(CN3CC(C)(C)NC[C@]3(C)C3CC3)c12 [Example 125, 4-[4-((S)-2-Cyclopropyl-2,5,5-trimethyl-piperazin-1-ylmethyl)-3-methyl-1H-pyrazolo[3,4-b]pyridin-6-yl]-3-fluoro-phenol] | 87% | 
20 | Cc1n[nH]c2nc(-c3ccc(O)cc3F)cc(CN3CC(C)(C)NC[C@@]3(C)C3CC3)c12 [Example 126, 4-[4-((R)-2-Cyclopropyl-2,5,5-trimethyl-piperazin-1-ylmethyl)-3-methyl-1H-pyrazolo[3,4-b]pyridin-6-yl]-3-fluoro-phenol] | 91% | 
21 | Cc1n[nH]c2nc(-c3ccc(O)cc3F)cc(CN3C[C@H](C)NCC34CCCC4)c12 [Example 127, 3-Fluoro-4-[3-methyl-4-((S)-8-methyl-6,9-diaza-spiro[4.5]dec-6-ylmethyl)-1H-pyrazolo[3,4-b]pyridin-6-yl]-phenol] | 87% | 
22 | Cc1n[nH]c2nc(-c3ccc(O)cc3F)cc(CN3C[C@@H](C)NCC34CCCC4)c12 [Example 128, 3-Fluoro-4-[3-methyl-4-((R)-8-methyl-6,9-diaza-spiro[4.5]dec-6-ylmethyl)-1H-pyrazolo[3,4-b]pyridin-6-yl]-phenol] | 71% | 
23 | Cc1n[nH]c2nc(-c3ccc(O)cc3F)cc(CN3C[C@H](C(C)C)NCC3(C)C)c12 [Example 129, 3-Fluoro-4-[4-((S)-5-isopropyl-2,2-dimethyl-piperazin-1-ylmethyl)-3-methyl-1H-pyrazolo[3,4-b]pyridin-6-yl]-phenol] | 97% | 
24 | Cc1n[nH]c2nc(-c3ccc(O)cc3F)cc(CN3C[C@@H](C(C)C)NCC3(C)C)c12 [Example 130, 3-Fluoro-4-[4-((R)-5-isopropyl-2,2-dimethyl-piperazin-1-ylmethyl)-3-methyl-1H-pyrazolo[3,4-b]pyridin-6-yl]-phenol] | 98% | 
25 | Cc1n[nH]c2nc(-c3ccc(O)cc3)cc(CN3C[C@H](C)NCC3(C)C)c12 [Example 131, 4-[3-Methyl-4-((S)-2,2,5-trimethyl-piperazin-1-ylmethyl)-1H-pyrazolo[3,4-b]pyridin-6-yl]-phenol] | 103% | 
26 | Cc1n[nH]c2nc(-c3ccc(O)cc3)cc(CN3C[C@@H](C)NCC3(C)C)c12 [Example 132, 4-[3-Methyl-4-((R)-2,2,5-trimethyl-piperazin-1-ylmethyl)-1H-pyrazolo[3,4-b]pyridin-6-yl]-phenol] | 97% | 
27 | Cc1n[nH]c2nc(-c3ccc(O)cc3F)cc(CN3CC(C)(C)NC[C@@H]3C(C)C)c12 [Example 133, 3-Fluoro-4-[4-((S)-2-isopropyl-5,5-dimethyl-piperazin-1-ylmethyl)-3-methyl-1H-pyrazolo[3,4-b]pyridin-6-yl]-phenol] | 103% | 
28 | Cc1n[nH]c2nc(-c3ccc(O)cc3F)cc(CN3CC(C)(C)NC[C@H]3C(C)C)c12 [Example 134, 3-Fluoro-4-[4-((R)-2-isopropyl-5,5-dimethyl-piperazin-1-ylmethyl)-3-methyl-1H-pyrazolo[3,4-b]pyridin-6-yl]-phenol] | 102% | 
29 | CC[C@]1(C)CN(Cc2cc(-c3ccc(O)cc3F)nc3[nH]nc(C)c23)C(C)(C)CN1 [Example 135, 4-[4-((R)-5-Ethyl-2,2,5-trimethyl-piperazin-1-ylmethyl)-3-methyl-1H-pyrazolo[3,4-b]pyridin-6-yl]-3-fluoro-phenol] | 106% | 
30 | CC[C@@]1(C)CN(Cc2cc(-c3ccc(O)cc3F)nc3[nH]nc(C)c23)C(C)(C)CN1 [Example 136, 4-[4-((S)-5-Ethyl-2,2,5-trimethyl-piperazin-1-ylmethyl)-3-methyl-1H-pyrazolo[3,4-b]pyridin-6-yl]-3-fluoro-phenol] | 104% | 
31 | Cc1n[nH]c2nc(-c3ccc(O)cc3F)cc(CN3CC4(CCCC4)NC[C@@H]3C)c12 [Example 137, 3-Fluoro-4-[3-methyl-4-((S)-8-methyl-6,9-diaza-spiro[4.5]dec-9-ylmethyl)-1H-pyrazolo[3,4-b]pyridin-6-yl]-phenol] | 98% | 
32 | Cc1n[nH]c2nc(-c3ccc(O)cc3F)cc(CN3CC4(CCCC4)NC[C@H]3C)c12 [Example 138, 3-Fluoro-4-[3-methyl-4-((R)-8-methyl-6,9-diaza-spiro[4.5]dec-9-ylmethyl)-1H-pyrazolo[3,4-b]pyridin-6-yl]-phenol] | 98% | 
